Earlier results on 90 compounds are cited in the CATMoS acute toxicity set (Mansouri et al. 2021).

Where “and” joins values, the source holds several entries; their conditions need not be identical. Equal entries are not always repeated.

What is called LD50 is the dose at which mortality reaches 50%.

This series is described as follows: rat acute oral toxicity. The note with it: in vivo.
In the case of `CCCCOC(=O)CC#N`, the LD50 is 4180 mg/kg. As to `CCCCCCCCCC(=O)NP(=O)(OC)SC` (stereo not given), the LD50 was 125 mg/kg. `Clc1cc2c(cc1Cl)Oc1c(cc(Cl)c(Cl)c1Cl)O2`: the 50% lethal dose (LD50) is 0.206 mg/kg. Consider `Nc1ccc(-c2ccc(-n3nc4ccc5c(S(=O)(=O)O)cc(S(=O)(=O)O)cc5c4n3)cc2)cc1S(=O)(=O)O`, for which the LD50 is 9500 mg/kg. Regarding `CCC1(c2ccccc2)CCC(=O)NC1=O` (stereo not given), the 50% lethal dose (LD50) is 600 mg/kg. For the compound `NC1=NCC2c3ccccc3Cc3ccccc3N12` (stereo not given), the LD50 was 192 mg/kg.

With `O=[N+]([O-])O[C@H]1CO[C@H]2[C@@H]1OC[C@H]2O[N+](=O)[O-]`, the 50% lethal dose (LD50) was 747 mg/kg. Consider `CCC(=O)OC(CC)(c1ccccc1)C1CCN(C)C1` (stereo not given), for which the LD50 is 460 mg/kg. For the compound `O=C(O)CCCCCCCCC(=O)O`, the median lethal dose (LD50) is 14400 mg/kg.

On to `c1ccc2c(c1)CN1CCN=C1N2`, for which the median lethal dose (LD50) is 900 mg/kg. Regarding `C[C@@H]1CCC[C@H](C)N1CCCC(O)(c1ccccc1)c1ccccn1` (stereo not given in full), the LD50 was 251 mg/kg. For `CC1CCCC(C)N1CCCNc1n[nH]c2ccccc12` (stereo not given), the LD50 was 700 mg/kg. Regarding `CCOC(=O)c1c[n+](CC)c2n(c1=O)C(C)CCC2` (stereo not given), the LD50 is 1350 mg/kg. Consider `CNC(=O)ON=C(SC)c1ccc(Cl)cc1`, for which the LD50 is 670 mg/kg. Consider `Oc1ccc(C(c2ccc(O)cc2)c2ccccn2)cc1`, for which the LD50 was 8550 mg/kg. As for `CCN(CC)S(=O)(=O)c1ccc(OP(=S)(OC)OC)cc1Cl`, the LD50 was 50 mg/kg. In the case of `CCOc1ccc(NCCC#N)cc1`, the LD50 was 4600 mg/kg. For `O=C(Nc1ccc(Br)cc1)c1cc(Br)ccc1O`, the LD50 is 410 mg/kg.

With `CN1COCN(Cc2cnc(Cl)s2)C1=N[N+](=O)[O-]`, the LD50 is 1560 mg/kg. As to `COP(=S)(OC)Oc1ccc([N+](=O)[O-])c(Cl)c1`, the 50% lethal dose (LD50) was 285 mg/kg.

In the case of `Cc1cccc(C)c1N(COC(C)C)C(=O)CCl`, the LD50 is 975 mg/kg. In the case of `CC(=O)OCN(C)N=O`, the median lethal dose (LD50) was 130 mg/kg. In the case of `Oc1cc(Cl)c(Cl)cc1Cl`, the LD50 was 1620 mg/kg. For `CCOP(=O)(NC(C)=O)SC` (stereo not given), the median lethal dose (LD50) is 500 mg/kg. Regarding `C#CCOC(=O)CCCCC(=O)OCC#C`, the LD50 was 200 mg/kg. Consider `c1nc(NC2CC2)c2ncn(CC3CC3)c2n1`, for which the LD50 is 160 mg/kg. `COC(C)CCOC(C)=O` (stereo not given): the LD50 is 4210 mg/kg. For the compound `Cc1cccc(N)n1`, the median lethal dose (LD50) was 100 mg/kg. In the case of `C=CCN1CC[C@]23CCCC[C@H]2[C@H]1Cc1ccc(O)cc13`, the LD50 is 949 mg/kg. As for `CC=CC#N`, the LD50 is 167 mg/kg and 501 mg/kg. Turning to `Nc1ccc2ccccc2c1`, the 50% lethal dose (LD50) was 727 mg/kg. In the case of `CN(CCCO)CCC(c1ccccc1)c1ccccc1`, the LD50 is 1400 mg/kg. Turning to `CCOC(=O)C1CC2CC1C1OC21` (stereo not given), the median lethal dose (LD50) is 4760 mg/kg. `CC(C)(C)CON=CC1C(C(=O)OC(C#N)c2cccc(Oc3ccccc3)c2)C1(C)C` (stereo not given): the LD50 is 143 mg/kg. As to `CN(C)c1ccc(N)cc1`, the 50% lethal dose (LD50) is 48 mg/kg. In the case of `CCNC1C2CCC(C2)C1c1ccccc1` (stereo not given), the median lethal dose (LD50) is 83 mg/kg. For `CC(=O)Nc1cc(Cl)ccc1Cl`, the LD50 was 4100 mg/kg. Consider `CN1CC(CC#N)CC2c3cccc4[nH]c(Cl)c(c34)CC21` (stereo not given), for which the 50% lethal dose (LD50) is 290 mg/kg. As for `C=CC1OCC(C)O1` (stereo not given), the LD50 is 890 mg/kg. Regarding `CC(C)(C)NCCC(O)c1cc(C(F)(F)F)nc2c(C(F)(F)F)cccc12` (stereo not given), the LD50 is 2090 mg/kg. On to `CN(CCn1cnc2c1c(=O)n(C)c(=O)n2C)C1CCCCC1`, for which the median lethal dose (LD50) was 2880 mg/kg.

For `CN(C)N`, the median lethal dose (LD50) is 122 mg/kg and 196 mg/kg. Turning to `CCOP(=S)(OCC)SCS(=O)CC` (stereo not given), the median lethal dose (LD50) was 2 mg/kg. Take `O=C1CCc2cc(C(=O)CCCN3CC=C(c4ccccc4)CC3)ccc2N1`: the LD50 is 500 mg/kg.

With `CN(C)c1ncnc2c1ncn2CC1CC1`, the LD50 is 570 mg/kg. Consider `CC(=O)CCCCCCCC(=O)O`, for which the LD50 was 3100 mg/kg. In the case of `S=c1[nH]c(=S)[nH]c(=S)[nH]1`, the median lethal dose (LD50) was 9500 mg/kg. Regarding `CCOC(=O)C(SP(=O)(OC)OC)c1ccccc1` (stereo not given), the LD50 is 63 mg/kg.

Consider `CC(C)=CCCC(C)CC=O` (stereo not given), for which the LD50 was 2420 mg/kg and 7200 mg/kg.

On to `COB1OB(OC)OB(OC)O1`, for which the median lethal dose (LD50) was 5160 mg/kg. For the compound `C=C(C)C(=O)OCC(C)O` (stereo not given), the median lethal dose (LD50) was 11200 mg/kg. `Cc1ncc([N+](=O)[O-])n1CCO`: the 50% lethal dose (LD50) was 3000 mg/kg. As for `C[C@H](N)Cc1ccccc1`, the median lethal dose (LD50) is 38 mg/kg.

As for `CC(C(=O)O)c1ccc2c(c1)OCc1cc(Cl)ccc1C2=O` (stereo not given), the 50% lethal dose (LD50) is 12 mg/kg. For the compound `OCC(CO)N[C@H]1C[C@](O)(CO)[C@@H](O)[C@H](O)[C@H]1O`, the median lethal dose (LD50) was 20000 mg/kg. As for `CCCCOCCOC(=O)COc1cc(Cl)c(Cl)cc1Cl`, the median lethal dose (LD50) was 500 mg/kg. With `CC(=O)Nc1c(I)c(C(=O)O)c(I)c(N(C)C(C)=O)c1I`, the LD50 is 38100 mg/kg. Turning to `CS(=O)(=O)c1ccccc1`, the LD50 was 1470 mg/kg. With `c1ccc(P(C2CCCCC2)C2CCCCC2)cc1`, the median lethal dose (LD50) was 820 mg/kg. For `OCc1ccccc1`, the median lethal dose (LD50) is 1230 mg/kg. With `CCOC(C1=NCC(C)(CC)CN1)c1cccc(F)c1` (stereo not given), the LD50 is 165 mg/kg.

As for `O=C(O)c1cc(N=Nc2ccc(-c3ccc(N=Nc4c(O)ccc(/N=N/c5cc(S(=O)(=O)O)ccc5O)c4O)cc3)cc2)ccc1O`, the LD50 is 12100 mg/kg. As for `CCOC(=O)C=CC(=O)OCC`, the median lethal dose (LD50) was 3200 mg/kg. In the case of `Nc1cccc2c(Cl)ccc(Cl)c12`, the LD50 is 3490 mg/kg. Turning to `CC(C(=O)O)c1ccc(N2CC3=C(CC=CC3)C2=O)cc1` (stereo not given), the LD50 is 328 mg/kg.

Turning to `O=C(O[C@H]1C[C@H]2CC[C@@H](C1)[N+]21CCCC1)C(O)(c1ccccc1)c1ccccc1`, the LD50 was 1510 mg/kg. `Cc1ccc(C(=O)c2ccc(CC(=O)NCCn3cnc4c3c(=O)n(C)c(=O)n4C)n2C)cc1`: the median lethal dose (LD50) is 1200 mg/kg. On to `COc1ccc(C(CCCc2ccccc2)N(C)C)cc1OC` (stereo not given), for which the median lethal dose (LD50) is 500 mg/kg. Regarding `COP(=S)(OC)Oc1ccc(C#N)cc1C`, the LD50 is 500 mg/kg. For the compound `O=c1[nH]nc(-c2ccccc2)c2conc12`, the 50% lethal dose (LD50) was 1000 mg/kg.

As for `CCOC(=O)c1c[n+](C)c2n(c1=O)C(C)CCC2` (stereo not given), the 50% lethal dose (LD50) was 1500 mg/kg. `O=C(O)c1c(Cl)ccc(Cl)c1Cl`: the median lethal dose (LD50) was 1640 mg/kg. Take `CN(C)CCOCCOC(=O)N1c2ccccc2Sc2ccccc21`: the LD50 is 1500 mg/kg. For the compound `CC(C)(C)c1cc(C=C(C#N)C#N)cc(C(C)(C)C)c1O`, the LD50 is 87 mg/kg. On to `O=C(O)Cc1cc(O)ccc1Nc1c(Cl)cccc1Cl`, for which the LD50 was 1430 mg/kg.

Take `CC(=O)C(Cl)C(=O)OC(C)c1ccccc1` (stereo not given): the median lethal dose (LD50) was 880 mg/kg. Take `O=C(O)c1cc(Cl)ccc1O`: the 50% lethal dose (LD50) was 250 mg/kg. For the compound `O=NN(CCCl)C(=O)NC1CCCCC1`, the LD50 was 70 mg/kg. `CCCc1ccc(OC)cc1`: the LD50 was 4400 mg/kg. As to `CCCCN(CCCC)CCCN`, the LD50 was 820 mg/kg. On to `OC1CC2CC1C1CC3OC3C21` (stereo not given), for which the LD50 was 3130 mg/kg. Turning to `ClCCCCCCCCC(Cl)(Cl)Cl`, the LD50 was 370 mg/kg. Turning to `CCCCOCCCOC(=O)COc1ccc(Cl)cc1Cl`, the LD50 was 500 mg/kg. Take `Clc1cccc2c1Oc1c(Cl)c(Cl)c(Cl)c(Cl)c1O2`: the 50% lethal dose (LD50) was 0.206 mg/kg. `Cc1ccccc1C(C)c1ccccc1` (stereo not given): the median lethal dose (LD50) is 1750 mg/kg. For the compound `FC(F)(F)c1nc2c(Br)c(Br)c(Br)c(Br)c2[nH]1`, the LD50 was 5.02 mg/kg. With `CCN(CCO)c1cccc(C)c1`, the median lethal dose (LD50) is 1370 mg/kg. Regarding `COc1ccc2c(c1)N(C[C@H](C)CN(C)C)c1ccccc1S2`, the 50% lethal dose (LD50) is 1100 mg/kg. For `CCCCOC(C[n+]1ccccc1)c1ccccc1` (stereo not given), the LD50 is 250 mg/kg.

In the case of `COP(=S)(OC)SCSc1cc(Cl)cc(Cl)c1`, the 50% lethal dose (LD50) is 443 mg/kg.
